Results published in BindingDB's records for doi:10.1016/j.ejmech.2018.01.047 (Cnrs, 2018).

Molecular target: T1, Enoyl-[acyl-carrier-protein] reductase [NADH] (Mycobacterium tuberculosis (strain ATCC 25618 / H37Rv), UniProt P9WGR1)
T1 sequence (P9WGR1 whole entry): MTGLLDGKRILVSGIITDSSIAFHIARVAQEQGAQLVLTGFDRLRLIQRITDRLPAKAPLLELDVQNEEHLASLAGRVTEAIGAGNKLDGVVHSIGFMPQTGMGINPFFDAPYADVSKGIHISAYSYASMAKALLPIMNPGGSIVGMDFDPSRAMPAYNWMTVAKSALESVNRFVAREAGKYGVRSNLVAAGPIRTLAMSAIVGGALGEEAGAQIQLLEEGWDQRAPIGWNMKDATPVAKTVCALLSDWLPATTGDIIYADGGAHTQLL
Test: Inhibition of Mycobacterium tuberculosis InhA

Structure (SMILES) | IC50 [µM]
CCCCCCc1ccc(Oc2ccccc2Cl)c(O)c1 [PT91] | 0.049
CCCCCCc1ccc(Oc2ccccc2C#N)c(O)c1 [PT119] | 0.236
